Test results as given in article PMC7248897, “Synthesis, Biological Evaluation and In Silico Studies of Certain Oxindole–Indole Conjugates as Anticancer CDK Inhibitors” (Molecules, 2020).

How the values were obtained:
[1] = system: MCF-7 breast cancer cell line; experiment: SRB anti-proliferative assay, MCF-7; assay type: cell-based, human; details: for IC50: Homo sapiens, MCF7, SRB assay, 48 h, mean ± S.D. from 3 separate experiments, read-out: IC50 MCF-7; for fold enhancement of anti-proliferative activity compared to 6a: MCF-7, ratio of IC50 values
Description: Cytotoxicity was assessed following the SRB colorimetric assay protocol, as reported earlier.
1. Anti-proliferative action toward human breast cell lines […]
have been obtained from American Type Culture Collection (ATCC). The cells were maintained in Dulbecco's modified Eagle's medium (DMEM) supplemented with 10% heat inactivated fetal calf serum (GIBCO), penicillin (100 U/ml) and streptomycin (100 µg/ml) at 37 °C in humidified atmosphere containing 5% CO2. Cells at a concentration of […]
The anti-proliferative activity of the tested hybrids 6a-i, 9a-f and 11a, b was measured in vitro using the Sulfo-Rhodamine-B stain (SRB) assay. Briefly, Cells were inoculated in 96-well microtiter plate (5X104 cells/ well) for 24 h before treatment with the tested compounds to allow attachment of cell to the wall of the plate. Tested compounds were dissolved in DMSO at 1 mg/ml immediately before use and diluted to the appropriate volume just before addition to the cell culture. Different concentrations of tested compounds, doxorubicin and sorafenib were added to the cells (three wells were prepared for each individual dose). Cells were incubated with the compounds for 48 h at 37°C and in atmosphere of 5% CO2. After 48 h cells were fixed, washed, and stained for 30 min with 0.4% (w/v) SRB dissolved in 1% acetic acid. Unbound dye was removed by four washes with 1% acetic acid, and attached stain was recovered with Tris-EDTA buffer.
Color intensity was measured in an ELISA reader. […]

Bcl-2 = experiment: ELISA of Bcl-2 level in MCF-7 cells; assay type: cell-based, human; details: for fold decrease of Bcl-2 level: MCF-7, vs control; for Bcl-2: MCF-7 cells treated at IC50, 48 h, control 4.65 ± 0.23
Description: (§1) Homogeneously, both conjugates were able to decrease the level of the anti-apoptotic Bcl-2 protein by 2.12-, and 1.7-fold, respectively (Table 3). As a more analytical variable, the Bax/Bcl-2 ratio was verified to be amplified by conjugates 6e and 6f, 18- and 12-fold, respectively.
(§2) Assessment of the levels for the proapoptotic markers (Bax, caspase-3, and p53) as well as the antiapoptotic marker (Bcl-2) was carried out through the use of ELISA colorimetric kits in accordance with the manufacturer’s instructions, as mentioned earlier. In addition, the pro-apoptotic potential of indoles 6e and 6f towards MCF-7 cells was evaluated through an FITC Annexin V apoptosis detection kit by flow cytometry, in accordance with the manufacturer’s protocol and referring to the reported procedures.
(§3) The levels of the pro-apoptotic markers (Bax, caspase-3 and p53) as well as the anti-apoptotic marker Bcl-2 were determined using ELISA colorimetric kits per the manufacturer’s instructions. Breast cancer MCF-7 cells were cultured as a monolayer in T-25 flasks and were seeded to attain 30% confluency prior to treatment. Cells were then […]
(§4) of treatment, cells were collected via trypsinization and centrifuged at 10,000 rpm. The pellet was then rinsed with PBS and lysed in RIPA lysis buffer at 4 °C for 45 min, then centrifuged at 14,000 rpm for 20 min to remove the cellular debris. Lysates were then collected and stored at −80 °C for later protein determination using Pierce BCA Protein Assay Kit according to manufacturer’s recommendations.
(§5) The cell lysate was diluted 10 times, and 100 μL ([…]) was added to the wells of four separate microtiter plates for the four ELISA kits that were pre-coated with primary antibodies specific to Bax, Bcl-2, caspase-3 and p53 proteins, respectively. A secondary biotin-linked antibody specific to the protein captured by the primary antibody was further added to bind the captured protein, forming a “sandwich” of specific antibodies around the desired protein in the cell lysate. The streptavidin-HRP complex was then used to bind the biotin-linked secondary antibody through its streptavidin portion. The HRP domain reacted with the added TMB substrate to form a colored product that measured at 450 nm by a plate reader ChroMate-4300 after the reaction was terminated via the addition of stop solution. […]
(§6) Cells were then rinsed in binding buffer and resuspended in 150
(§7) μL of binding buffer with the addition of 1 μL of DAPI (1 μg/μL in PBS). […]

Bax/Bcl-2 = Bax/Bcl-2 ratio in MCF-7 cells; assay type: cell-based, human; details: for fold increase of Bax/Bcl-2 ratio: MCF-7, vs control; for Bax/Bcl-2: MCF-7 cells treated at IC50, control 8.2
Description: as §1, §2, §3, §4, §5, §6, §7

caspase-3 = experiment: ELISA of active caspase-3 level in MCF-7 cells; assay type: cell-based, human; details: for fold increase of caspase-3 level: MCF-7, in comparison to the control; for Caspase-3: active caspase-3, MCF-7 cells treated at IC50, 48 h, control 35.92 ± 1.8
Description: (§8) In addition, their influence on the level of caspase-3 and p53 was estimated in the MCF-7 cell line.
as §2, §3, §4, §5, §6, §7

p53 = experiment: ELISA of p53 level in MCF-7 cells; assay type: cell-based, human; details: for fold increase of p53 level: MCF-7, as compared to the control; for p53: MCF-7 cells treated at IC50, 48 h, control 41.26 ± 2.7
Description: as §8, §2, §3, §4, §5, §6, §7

MCF-7 cells = experiment: Annexin V-FITC apoptosis assay; assay type: cell-based, human; details: for fold increase of entire apoptosis percentage: MCF-7, in comparison to the control (DMSO); for percent of Anx V-FITC positive cells (entire apoptosis): MCF-7 cells treated at IC50
Description: Anx V-based flow cytometry assay represents a helpful tactic for determining whether death of cells is attributed to programmed apoptosis or to uncontrolled necrosis.
This clearly verifies that cell death resulting from the anti-proliferative action of the target hybrids was attributable to physiological apoptosis and not to nonspecific necrosis.
as §2, with “procedures. […]” for “procedures.”
4. Annexin V-FITC Apoptosis Assay
Phosphatidylserine externalization was assayed using Annexin V-FITC/PI apoptosis detection kit (BD Biosciences, USA) according to the manufacturer’s instructions. Breast cancer MCF-7 cells were cultured to a monolayer then treated with hybrids 6e and 6f at their IC50 concentration. Briefly, cells were then harvested via trypsinization, and rinsed twice in PBS followed by binding buffer. Moreover, cells were re-suspended in 100 μL of binding buffer with the addition of 1 μL of FITC-Annexin V followed by an incubation period of 30 min at 4 °C. Cells were then rinsed in binding buffer and resuspended in 150 μL of binding buffer with the addition of 1 μL of DAPI (1 μg/μL in PBS). Cells were then analyzed using the flow cytometer BD FACS Canto II and the results were interpreted with FlowJo7.6.4 software (Tree Star, Ashland, OR, USA).

CDK4 = molecular target: T1, CDK4 (Homo sapiens, UniProt P11802); experiment: CDK4 kinase inhibition (Reaction Biology HotSpot); assay type: biochemical; details: for inhibition at 20 µM: single dose of 20 µM
T1 construct: purchased Reaction Biology Corp. (Kinase HotSpot service)
Text: (§9) 5. CDK Kinase Inhibitory Activity
(§10) along with required cofactors.
(§11) Kinase activity data were
(§12) (dimethyl sulfoxide) reactions.

CDK2 = molecular target: T2, CDK2 (Homo sapiens, UniProt P24941); experiment: CDK2 kinase inhibition (Reaction Biology HotSpot); assay type: biochemical; details: single dose of 20 µM; read-out: % Enzyme Inhibitory Activity CDK2
T2 construct: purchased Reaction Biology Corp. (Kinase HotSpot service)
Text: as §9, §10, §11, §12

T1 sequence (P11802 whole entry): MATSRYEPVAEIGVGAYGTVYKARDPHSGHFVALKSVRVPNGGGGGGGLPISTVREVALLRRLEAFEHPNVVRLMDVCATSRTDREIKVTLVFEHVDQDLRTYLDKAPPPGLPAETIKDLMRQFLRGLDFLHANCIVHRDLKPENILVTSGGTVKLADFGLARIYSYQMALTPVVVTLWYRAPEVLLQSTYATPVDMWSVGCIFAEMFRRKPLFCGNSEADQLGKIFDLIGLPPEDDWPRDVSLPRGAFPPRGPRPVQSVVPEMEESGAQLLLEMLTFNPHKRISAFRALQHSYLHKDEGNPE
T1 sequence (P24385 whole entry partner): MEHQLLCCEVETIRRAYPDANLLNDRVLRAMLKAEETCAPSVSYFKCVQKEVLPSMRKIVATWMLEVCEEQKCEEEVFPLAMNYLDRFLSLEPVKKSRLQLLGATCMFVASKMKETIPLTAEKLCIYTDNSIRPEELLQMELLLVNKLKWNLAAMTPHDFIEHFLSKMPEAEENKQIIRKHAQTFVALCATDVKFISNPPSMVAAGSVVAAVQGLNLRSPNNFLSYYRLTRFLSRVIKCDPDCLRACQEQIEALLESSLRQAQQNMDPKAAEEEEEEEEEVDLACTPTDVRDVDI

SMILES | IC50 [1] | fold enhancement of anti-proliferative activity compared to 6a [1] | fold decrease of Bcl-2 level (Bcl-2) | Bcl-2 (Bcl-2) | fold increase of Bax/Bcl-2 ratio (Bax/Bcl-2) | Bax/Bcl-2 (Bax/Bcl-2) | fold increase of caspase-3 level (caspase-3) | Caspase-3 (caspase-3) | fold increase of p53 level (p53) | p53 (p53) | fold increase of entire apoptosis percentage (MCF-7 cells) | percent of Anx V-FITC positive cells (entire apoptosis) (MCF-7 cells) | inhibition at 20 µM (CDK4) | inhibition at 20 µM (CDK2) | IC50 (CDK4)
COc1ccc2c(c1)/C(=N/NC(=O)c1cc3ccccc3[nH]1)C(=O)N2 [6f] | 1850 ± 80 nM | 1.7 fold | 1.7 fold | 2.73 ± 0.13 ng/mg of Total Protein | 12 fold | 98.6 | 10.1 fold | 364.15 ± 14.8 pg/mg | 13.3 fold | 547.60 ± 29.5 pg/mg | 28.60 fold | 25.17% | 14% | ≥ 50% | 
Cc1ccc2c(c1)/C(=N/NC(=O)c1cc3ccccc3[nH]1)C(=O)N2 [6e] | 390 ± 50 nM | 8 fold | 2.12 fold | 2.19 ± 0.10 ng/mg of Total Protein | 18 fold | 148.5 | 11.45 fold | 411.70 ± 12.3 pg/mg | 17 fold | 704.39 ± 32.8 pg/mg | 33.75 fold | 29.7% | 93% | ≥ 50% | 1260 nM
